For one assay, the system named is GBA mutant human fibroblasts GM008760. Nature of the assay: Glucosylceramide lowering assay. In kind it is cell-based. Conditions: 10 μM test compound, 4 days culture; GlcCer (C16:0)/Cer (C16:0) molar ratio of test compound group relative to DMSO control group x100; smaller value = glucosylceramide lowering. The procedure, abridged:
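Fibroblasts with mutant GBA were treated with 10 μM compound for 4 days. Lipids extracted in ethanol/isopropanol with deuterated internal standard; GlcCer (C16:0) and Cer (C16:0) quantified by RapidFire-MS/MS. Value is GlcCer/Cer ratio relative to DMSO control ×100.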
With `Cc1cn(C)c(=O)c2c(C(=O)N3CC4CC4(c4ccc(OC(F)(F)F)cc4)C3)cnn12` (stereo not shown) [Example 305, 5,7-dimethyl-3-((1-(4-(trifluoromethoxy)phenyl)-3-azabicyclo[3.1.0]hex-3-yl)carbonyl)pyrazolo[1,5-a]pyrazin-4(5H)-one], the “10 μM GlcCer/Cer (% of control)” value was 47 % of control.
For `Cc1cn(C)c(=O)c2c(C(=O)N3CC4CC4(c4ccc(Cl)cc4)C3)cnn12` (stereo not shown) [Example 307, 3-((1-(4-chlorophenyl)-3-azabicyclo[3.1.0]hex-3-yl)carbonyl)-5,7-dimethylpyrazolo[1,5-a]pyrazin-4(5H)-one], the “10 μM GlcCer/Cer (% of control)” value was 65 % of control.
`Cc1cn(C)c(=O)c2c(C(=O)N3CC4CC4(c4ccc(OC(F)(F)F)cc4)C3)cnn12` (stereo not shown) [Example 309, 5,7-dimethyl-3-((1-(4-(trifluoromethoxy)phenyl)-3-azabicyclo[3.1.0]hex-3-yl)carbonyl)pyrazolo[1,5-a]pyrazin-4(5H)-one]: the “10 μM GlcCer/Cer (% of control)” value is given as 44 % of control.
In the case of `Cc1cn(C)c(=O)c2c(C(=O)N3CC4CC4(c4ccc(OC(F)(F)F)cc4)C3)cnn12` (stereo not shown) [Example 310, 5,7-dimethyl-3-((1-(4-(trifluoromethoxy)phenyl)-3-azabicyclo[3.1.0]hex-3-yl)carbonyl)pyrazolo[1,5-a]pyrazin-4(5H)-one], the “10 μM GlcCer/Cer (% of control)” value is recorded as 68 % of control.

The assay is the same for the next values; noted with them: Homo sapiens, Fibroblast, 96 h; 10 μM test compound, 4 days culture; GlcCer (C16:0)/Cer (C16:0) molar ratio of test compound group relative to DMSO control group x100; smaller value = glucosylceramide lowering.
`Cn1cc(C(=O)Nc2ccc(N3CCOCC3)cc2)c2c(=O)n(-c3ccccc3OCC(F)(F)F)ccc21` [Example 294, 1-methyl-N-(4-(morpholin-4-yl)phenyl)-4-oxo-5-(2-(2,2,2-trifluoroethoxy)phenyl)-4,5-dihydro-1H-pyrrolo[3,2-c]pyridine-3-carboxamide]: the activity at 10 µM amounted to 36%.
For `COc1cc(F)ccc1-n1ccc2c(c(C(=O)Nc3ccc(N4CCOCC4)cc3)cn2C)c1=O` [Example 295, 5-(4-fluoro-2-methoxyphenyl)-1-methyl-N-(4-(morpholin-4-yl)phenyl)-4-oxo-4,5-dihydro-1H-pyrrolo[3,2-c]pyridine-3-carboxamide], the activity at 10 µM came out at 66%.
As for `Cn1cc(C(=O)NC(C)(C)c2ccc(Cl)cc2)c2c(=O)n(CC#N)ccc21` [Example 296, N-(2-(4-chlorophenyl)propan-2-yl)-5-(cyanomethyl)-1-methyl-4-oxo-4,5-dihydro-1H-pyrrolo[3,2-c]pyridine-3-carboxamide], the activity at 10 µM stood at 52%.
On the same count and under the same terms, for `Cc1cn(C)c(=O)c2c(C(=O)N3CCC(Oc4ccc(OC(F)(F)F)cc4)CC3)cnn12` [Example 303, 5,7-dimethyl-3-((4-(4-(trifluoromethoxy)phenoxy)piperidin-1-yl)carbonyl)pyrazolo[1,5-a]pyrazin-4(5H)-one] the value was 60%; for `Cc1cn(C)c(=O)c2c(C(=O)N3CC4CC4(c4ccc(Cl)cc4)C3)cnn12` (stereo not shown) [Example 304, 3-((1-(4-chlorophenyl)-3-azabicyclo[3.1.0]hex-3-yl)carbonyl)-5,7-dimethylpyrazolo[1,5-a]pyrazin-4(5H)-one], 64%.
On to `Cc1cn(C)c(=O)c2c(C(=O)NC(C)(C)c3ccc(Cl)cc3)cnn12` [Example 306, N-(2-(4-chlorophenyl)propan-2-yl)-5,7-dimethyl-4-oxo-4,5-dihydropyrazolo[1,5-a]pyrazine-3-carboxamide], for which the activity at 10 µM was determined as 51%.
On to `COc1ccccc1-n1cc(C)n2ncc(C(=O)Nc3ccc(N4CCOCC4)cc3)c2c1=O` [Example 311, 5-(2-methoxyphenyl)-7-methyl-N-(4-(morpholin-4-yl)phenyl)-4-oxo-4,5-dihydropyrazolo[1,5-a]pyrazine-3-carboxamide], for which the activity at 10 µM was 54%.
As for `Cc1cn(C)c(=O)c2c(C(=O)N3CCC(Oc4ccc(C(F)(F)F)cc4)CC3)cnn12` [Example 313, 5,7-dimethyl-3-((4-(4-(trifluoromethyl)phenoxy)piperidin-1-yl)carbonyl)pyrazolo[1,5-a]pyrazin-4(5H)-one], the activity at 10 µM came out at 52%.
For the compound `Cc1cn(CC#N)c(=O)c2c(C(=O)N3CCC(Oc4ccc(Cl)cc4)CC3)cnn12` [Example 330, {3-[4-(4-chlorophenoxy)piperidine-1-carbonyl]-7-methyl-4-oxopyrazolo[1,5-a]pyrazin-5(4H)-yl}acetonitrile], the activity at 10 µM is 68%.
Take `Cc1cn(-c2ccccc2OCC(F)(F)F)c(=O)c2c(C(=O)Nc3ccc(N4CCOCC4)cc3)cnn12` [Example 334, 7-methyl-N-[4-(morpholin-4-yl)phenyl]-4-oxo-5-[2-(2,2,2-trifluoroethoxy)phenyl]-4,5-dihydropyrazolo[1,5-a]pyrazine-3-carboxamide]: the activity at 10 µM was 27%.
Same read-out and setting: then `Cc1cn(-c2ccccc2OCC(F)(F)F)c(=O)c2c(C(=O)N3CCC(Oc4ccc(Cl)cc4)CC3)cnn12` [Example 335, 3-[4-(4-chlorophenoxy)piperidine-1-carbonyl]-7-methyl-5-[2-(2,2,2-trifluoroethoxy)phenyl]pyrazolo[1,5-a]pyrazin-4(5H)-one], with 68%.
The same measure, in the same setting: then `Cc1cn(-c2ccc(F)cc2OCC(F)(F)F)c(=O)c2c(C(=O)Nc3ccc(N4CCOCC4)cc3)cnn12` [Example 336, 5-[4-fluoro-2-(2,2,2-trifluoroethoxy)phenyl]-7-methyl-N-[4-(morpholin-4-yl)phenyl]-4-oxo-4,5-dihydropyrazolo[1,5-a]pyrazine-3-carboxamide], with 42%; and `Cc1cn(-c2ccccc2OCC(F)(F)F)c(=O)c2c(C(=O)Nc3ccc(OCC(F)(F)F)nc3)cnn12` [Example 337, 7-methyl-4-oxo-5-[2-(2,2,2-trifluoroethoxy)phenyl]-N-[6-(2,2,2-trifluoroethoxy)pyridin-3-yl]-4,5-dihydropyrazolo[1,5-a]pyrazine-3-carboxamide], with 37%.
`Cc1cn(-c2ccccc2OCC(F)(F)F)c(=O)c2c(C(=O)Nc3ccc(OC(F)F)nc3)cnn12` [Example 338, N-[6-(difluoromethoxy)pyridin-3-yl]-7-methyl-4-oxo-5-[2-(2,2,2-trifluoroethoxy)phenyl]-4,5-dihydropyrazolo[1,5-a]pyrazine-3-carboxamide]: the activity at 10 µM was found to be 40%.
On to `CCCCO[C@H]1CC[C@H](NC(=O)c2cnn3c(C)cn(-c4ccccc4OCC(F)(F)F)c(=O)c23)CC1` [Example 339, N-[trans-4-butoxycyclohexyl]-7-methyl-4-oxo-5-[2-(2,2,2-trifluoroethoxy)phenyl]-4,5-dihydropyrazolo[1,5-a]pyrazine-3-carboxamide], for which the activity at 10 µM is 30%.
Regarding `Cc1cn(-c2ccccc2OCC(F)(F)F)c(=O)c2c(C(=O)Nc3ccc(C(C)(C)O)cc3)cnn12` [Example 340, N-[4-(2-hydroxypropan-2-yl)phenyl]-7-methyl-4-oxo-5-[2-(2,2,2-trifluoroethoxy)phenyl]-4,5-dihydropyrazolo[1,5-a]pyrazine-3-carboxamide], the activity at 10 µM came to 33%.
Consider `Cc1cn(-c2ccccc2OCC(F)(F)F)c(=O)c2c(C(=O)Nc3ccc(C4CC4)nc3)cnn12` [Example 341, N-(6-cyclopropylpyridin-3-yl)-7-methyl-4-oxo-5-[2-(2,2,2-trifluoroethoxy)phenyl]-4,5-dihydropyrazolo[1,5-a]pyrazine-3-carboxamide], for which the activity at 10 µM was 32%.
On to `Cc1cn(-c2ccccc2OCC(F)(F)F)c(=O)c2c(C(=O)Nc3ccc(C#N)nc3)cnn12` [Example 342, N-(6-cyanopyridin-3-yl)-7-methyl-4-oxo-5-[2-(2,2,2-trifluoroethoxy)phenyl]-4,5-dihydropyrazolo[1,5-a]pyrazine-3-carboxamide], for which the activity at 10 µM is 28%.
Consider `Cc1cn(-c2ccccc2OCC(F)(F)F)c(=O)c2c(C(=O)Nc3ccc(C#N)cn3)cnn12` [Example 343, N-(5-cyanopyridin-2-yl)-7-methyl-4-oxo-5-[2-(2,2,2-trifluoroethoxy)phenyl]-4,5-dihydropyrazolo[1,5-a]pyrazine-3-carboxamide], for which the activity at 10 µM was 23%.
With `Cc1cn(C)c(=O)n2c(C(=O)NC(C)(C)c3ccc(Cl)cc3)cnc12` [Example 347, N-[2-(4-chlorophenyl)propan-2-yl]-6,8-dimethyl-5-oxo-5,6-dihydroimidazo[1,2-c]pyrimidine-3-carboxamide], the activity at 10 µM is 44%.
On to `COc1ccccc1-n1cc(C)c2ncc(C(=O)Nc3ccc(N4CCOCC4)cc3)n2c1=O` [Example 350, 6-(2-methoxyphenyl)-8-methyl-N-[4-(morpholin-4-yl)phenyl]-5-oxo-5,6-dihydroimidazo[1,2-c]pyrimidine-3-carboxamide], for which the activity at 10 µM is 54%.

The values above are taken from patent US11459325B2, “Heterocyclic compound” (Takeda Pharmaceutical Company Limited, priority 2018, dated 2022).
